Data published in ChEMBL document CHEMBL1201862, “PubChem BioAssay data set” (2004).
Calls of active or inactive are those of the source.

Key:
[1] = biological target: T1, High affinity choline transporter 1 (Homo sapiens, UniProt Q9GZV3); test: human choline transporter blockers, potency – cell-based, 5-point CRC, membrane potential dye, dose response (AID 504840); assay type: functional
T1 sequence (Q9GZV3 whole entry): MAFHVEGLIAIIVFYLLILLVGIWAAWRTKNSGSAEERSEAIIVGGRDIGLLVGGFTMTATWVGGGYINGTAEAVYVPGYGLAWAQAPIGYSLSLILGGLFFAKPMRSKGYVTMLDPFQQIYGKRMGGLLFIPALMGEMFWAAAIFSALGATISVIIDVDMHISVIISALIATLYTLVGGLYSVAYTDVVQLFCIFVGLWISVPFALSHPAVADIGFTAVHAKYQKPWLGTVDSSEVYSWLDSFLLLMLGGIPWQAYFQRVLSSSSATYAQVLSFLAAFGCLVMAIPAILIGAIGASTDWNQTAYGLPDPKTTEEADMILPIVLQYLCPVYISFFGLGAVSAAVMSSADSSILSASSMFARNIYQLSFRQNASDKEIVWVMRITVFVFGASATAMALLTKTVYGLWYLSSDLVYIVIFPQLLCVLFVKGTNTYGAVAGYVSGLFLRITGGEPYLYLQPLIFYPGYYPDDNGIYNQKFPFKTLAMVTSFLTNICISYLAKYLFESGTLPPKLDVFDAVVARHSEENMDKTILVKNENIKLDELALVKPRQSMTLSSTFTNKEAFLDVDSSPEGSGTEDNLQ

[2] = MIN6 cell viability loss – mouse insulinoma, cytotoxicity control, dose response (AID 2122); assay type: functional;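 further: confirmatory high-throughput counterscreen run to flag cytotoxic compounds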
[3] = decrease of insulin promoter-GFP reporter – imaging, high-content screening, mouse beta cells (AID 1628); assay type: functional; conditions: MIN6
[4] = biological target: T2, Serine/threonine-protein phosphatase (Candida dubliniensis (strain CD36 / CBS 7987 / NCPF 3949 / NRRLY-17841) (Yeast), UniProt B9W6M3); test: blockers of CaCl2-induced CDRE-lacZ signaling – S. cerevisiae, luminescence, secondary, dose response (AID 2388); assay type: functional, cell-based;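 further: yeast reporter cells carrying a calcineurin-responsive lacZ construct stimulated with calcium chloride; luminescent beta-galactosidase reporter signal in whole cells rather than isolated phosphatase activity; potency for inhibition where a drop in reporter signal means calcineurin blockade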
T2 sequence (B9W6M3 whole entry): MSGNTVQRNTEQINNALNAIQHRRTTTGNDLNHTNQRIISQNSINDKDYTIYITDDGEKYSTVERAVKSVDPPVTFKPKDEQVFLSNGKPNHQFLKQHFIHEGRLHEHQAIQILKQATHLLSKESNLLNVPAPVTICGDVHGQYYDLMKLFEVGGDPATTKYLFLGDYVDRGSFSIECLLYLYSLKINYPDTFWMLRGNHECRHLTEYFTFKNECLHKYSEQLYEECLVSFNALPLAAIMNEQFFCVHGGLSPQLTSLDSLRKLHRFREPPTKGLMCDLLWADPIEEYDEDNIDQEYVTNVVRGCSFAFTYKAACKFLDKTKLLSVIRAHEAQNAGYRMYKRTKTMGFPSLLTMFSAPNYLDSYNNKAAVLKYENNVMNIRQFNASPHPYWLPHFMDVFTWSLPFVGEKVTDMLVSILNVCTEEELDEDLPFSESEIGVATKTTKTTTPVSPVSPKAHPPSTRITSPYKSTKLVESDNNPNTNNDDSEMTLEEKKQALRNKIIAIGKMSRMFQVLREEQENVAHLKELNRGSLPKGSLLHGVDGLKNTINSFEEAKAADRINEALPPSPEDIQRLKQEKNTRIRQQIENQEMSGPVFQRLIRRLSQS

[5] = fluconazole-exposed Candida albicans growth modulators – fluorescence, retest, confirmation (AID 2467); assay type: functional, cell-based
[6] = tested on: Streptococcus sp. 'group A'; test: Streptococcus pyogenes SK(-)GAS viability under kanamycin – luminescence, BacTiterGlo, confirmation, counter-screen for streptokinase expression inhibitor project, dose response (AID 1900); assay type: functional, organism-based
[7] = biological target: ATP-dependent molecular chaperone HSP82 (Candida albicans (strain WO-1) (Yeast), UniProt C4YTQ8); test: steroid-induced GRE reporter decrease in yeast – S. cerevisiae, luminescence, Hsp90 inhibitor project, dose response (AID 2400); assay type: functional, cell-based;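 further: beta-galactosidase luminescence from glucocorticoid response element reporter as proxy for Hsp90 function; inhibitor potency where signal loss means Hsp90 inhibition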
[8] = NIH-3T3 fibroblast cytotoxicity, dose response, cytotoxicity control, cell-based, fluorescence, Alamar Blue, secondary assay (AID 2327); assay type: functional;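 further: NIH-3T3 mouse fibroblasts cultured with fluconazole at 8 µg/mL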
Streptococcus = test: GAS UMAA2166 growth inhibition – luminescence, BacTiterGlo, counter-screen for streptokinase expression inhibitor project, dose response (AID 1915); assay type: functional, organism-based;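 further: potency for reduction of bacterial viability or growth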
[9] = biological target: T1, High affinity choline transporter 1; test: human choline transporter blockers, potency – cell-based, 10-point CRC, membrane potential dye, dose response (AID 588401); assay type: functional;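 further: membrane potential dye fluorescence of choline-evoked depolarization via CHT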
[10] = blockade of melanocortin 4 receptor signaling – cell-based, plate reader, cherry pick, counter-screen for LGR2 antagonist project, dose response (AID 743444); assay type: functional;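 further: transfected HEK 293 cells stimulated with alpha-MSH peptide; potency of inhibitors of the alpha-MSH evoked signal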
[11] = A549 cell cytotoxicity, dose response, cytotoxicity control, plate reader, cherry-pick, antagonist series (AID 743412); assay type: functional, cell-based
[12] = toxicity toward HepG2 liver cells – cell-based, plate reader, cherry-pick, antagonist series, cytotoxicity control, dose response (AID 743416); assay type: functional
Paired box protein Pax-8 = Paired box protein Pax-8 (Homo sapiens, UniProt Q06710); test: PAX8 transcriptional activity inhibition in RMG-I – RMG-I cells, luciferase, cherry-pick, dose response (AID 687027); assay type: functional, cell-based;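 further: luciferase reporter driven by Pax8 target thyroperoxidase promoter measured by SteadyGlo luminescence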
[13] = blockers of bursicon-stimulated LGR2 cAMP reporter – cell-based, HEK293, CRE-luciferase reporter, cherry pick, set 2, dose response (AID 743343); assay type: functional;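 further: transfected cells were stimulated with diluted bursicon conditioned medium after compound addition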
[14] = CMV-driven luciferase expression suppression in HEK293 – cell-based, luminescence, dry powder, counter-screen for Pax8 inhibitor project, dose response (AID 743020); assay type: functional
[15] = viability loss in HEK293 cells – cell-based, plate reader, cherry-picked samples, cytotoxicity control, dose response (AID 743446); assay type: functional
Phospholipase A2 = Phospholipase A2 (Homo sapiens, UniProt P04054); assay type: functional;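 further: confirmatory dose-response counterscreen on phospholipase A2, testing hits that came from an ultra-high-throughput screen for ATG4B inhibitors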
Cysteine protease ATG4B = biological target: T3, Cysteine protease ATG4B (Homo sapiens, UniProt Q9Y4P1); assay type: functional;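 further: Fluorescence-based dose-response confirmation assay measuring inhibition of ATG4B activity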
T3 sequence (Q9Y4P1 whole entry): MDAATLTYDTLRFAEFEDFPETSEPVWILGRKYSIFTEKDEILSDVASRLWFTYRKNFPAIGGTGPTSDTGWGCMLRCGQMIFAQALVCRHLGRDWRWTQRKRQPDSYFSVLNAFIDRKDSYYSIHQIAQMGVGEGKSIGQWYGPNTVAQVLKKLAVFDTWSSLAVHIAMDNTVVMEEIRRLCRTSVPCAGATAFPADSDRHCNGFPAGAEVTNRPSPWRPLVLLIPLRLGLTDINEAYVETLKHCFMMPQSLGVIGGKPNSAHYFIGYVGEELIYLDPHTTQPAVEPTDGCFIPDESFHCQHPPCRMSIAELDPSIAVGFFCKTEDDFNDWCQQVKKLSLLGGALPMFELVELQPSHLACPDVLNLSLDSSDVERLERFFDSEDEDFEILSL

[16] = biological target: Dual specificity protein phosphatase 3 (Homo sapiens, UniProt P51452); test: VHR phosphatase inhibition, dose response, selectivity assay for STEP inhibitor project, biochemical (AID 602374); assay type: functional; conditions: read-out: IC50_Mean
[17] = biological target: Tyrosine-protein phosphatase non-receptor type 11 (Homo sapiens, UniProt Q06124); test: PTPN11 enzyme inhibitors – biochemical, selectivity assay for STEP inhibitor project, dose response (AID 602367); assay type: functional; conditions: read-out: IC50_Mean
[18] = biological target: Tyrosine-protein phosphatase non-receptor type 5 (Homo sapiens, UniProt P54829); test: PTPN5 enzyme inhibition – biochemical, fluorescence intensity, uHTS hits, confirmation (AID 602372); assay type: functional; conditions: read-out: IC50_Mean
[19] = activation of miR-122 Renilla sensor silencing – cell-based, Huh7 psiCHECK-miR122, Renilla luciferase, cherry-picked, dose response (AID 651956); assay type: functional;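 further: huh7 hepatoma cells stably carrying a psiCHECK-2 miR-122 sensor plasmid; renilla luciferase signal reporting endogenous miR-122 activity after 48 h compound exposure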
Fatty acid synthase [20] = biological target: T4, Fatty acid synthase (Homo sapiens, UniProt P49327); test: inhibition of human FAS-TE enzyme activity – biochemical, endpoint fluorescence intensity, uHTS hits, dose response (AID 624327); assay type: functional;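 further: fluorescence from hydrolysis of an O-methyl fluorescein acyl ester substrate by the enzyme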
Fatty acid synthase [21] = biological target: T4, Fatty acid synthase; test: inhibition of human FAS-TE enzyme activity – biochemical, kinetic fluorescence intensity, dose response (AID 624326); assay type: functional;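 further: rate of fluorescence rise from hydrolysis of a fluorogenic O-methyl fluorescein ester substrate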

Sequence of Phospholipase A2 (P04054 whole entry): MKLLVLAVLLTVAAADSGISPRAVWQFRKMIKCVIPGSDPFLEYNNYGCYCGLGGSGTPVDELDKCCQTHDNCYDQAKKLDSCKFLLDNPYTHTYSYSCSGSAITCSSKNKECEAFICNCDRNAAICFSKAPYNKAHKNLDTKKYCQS
T4 sequence (P49327 whole entry): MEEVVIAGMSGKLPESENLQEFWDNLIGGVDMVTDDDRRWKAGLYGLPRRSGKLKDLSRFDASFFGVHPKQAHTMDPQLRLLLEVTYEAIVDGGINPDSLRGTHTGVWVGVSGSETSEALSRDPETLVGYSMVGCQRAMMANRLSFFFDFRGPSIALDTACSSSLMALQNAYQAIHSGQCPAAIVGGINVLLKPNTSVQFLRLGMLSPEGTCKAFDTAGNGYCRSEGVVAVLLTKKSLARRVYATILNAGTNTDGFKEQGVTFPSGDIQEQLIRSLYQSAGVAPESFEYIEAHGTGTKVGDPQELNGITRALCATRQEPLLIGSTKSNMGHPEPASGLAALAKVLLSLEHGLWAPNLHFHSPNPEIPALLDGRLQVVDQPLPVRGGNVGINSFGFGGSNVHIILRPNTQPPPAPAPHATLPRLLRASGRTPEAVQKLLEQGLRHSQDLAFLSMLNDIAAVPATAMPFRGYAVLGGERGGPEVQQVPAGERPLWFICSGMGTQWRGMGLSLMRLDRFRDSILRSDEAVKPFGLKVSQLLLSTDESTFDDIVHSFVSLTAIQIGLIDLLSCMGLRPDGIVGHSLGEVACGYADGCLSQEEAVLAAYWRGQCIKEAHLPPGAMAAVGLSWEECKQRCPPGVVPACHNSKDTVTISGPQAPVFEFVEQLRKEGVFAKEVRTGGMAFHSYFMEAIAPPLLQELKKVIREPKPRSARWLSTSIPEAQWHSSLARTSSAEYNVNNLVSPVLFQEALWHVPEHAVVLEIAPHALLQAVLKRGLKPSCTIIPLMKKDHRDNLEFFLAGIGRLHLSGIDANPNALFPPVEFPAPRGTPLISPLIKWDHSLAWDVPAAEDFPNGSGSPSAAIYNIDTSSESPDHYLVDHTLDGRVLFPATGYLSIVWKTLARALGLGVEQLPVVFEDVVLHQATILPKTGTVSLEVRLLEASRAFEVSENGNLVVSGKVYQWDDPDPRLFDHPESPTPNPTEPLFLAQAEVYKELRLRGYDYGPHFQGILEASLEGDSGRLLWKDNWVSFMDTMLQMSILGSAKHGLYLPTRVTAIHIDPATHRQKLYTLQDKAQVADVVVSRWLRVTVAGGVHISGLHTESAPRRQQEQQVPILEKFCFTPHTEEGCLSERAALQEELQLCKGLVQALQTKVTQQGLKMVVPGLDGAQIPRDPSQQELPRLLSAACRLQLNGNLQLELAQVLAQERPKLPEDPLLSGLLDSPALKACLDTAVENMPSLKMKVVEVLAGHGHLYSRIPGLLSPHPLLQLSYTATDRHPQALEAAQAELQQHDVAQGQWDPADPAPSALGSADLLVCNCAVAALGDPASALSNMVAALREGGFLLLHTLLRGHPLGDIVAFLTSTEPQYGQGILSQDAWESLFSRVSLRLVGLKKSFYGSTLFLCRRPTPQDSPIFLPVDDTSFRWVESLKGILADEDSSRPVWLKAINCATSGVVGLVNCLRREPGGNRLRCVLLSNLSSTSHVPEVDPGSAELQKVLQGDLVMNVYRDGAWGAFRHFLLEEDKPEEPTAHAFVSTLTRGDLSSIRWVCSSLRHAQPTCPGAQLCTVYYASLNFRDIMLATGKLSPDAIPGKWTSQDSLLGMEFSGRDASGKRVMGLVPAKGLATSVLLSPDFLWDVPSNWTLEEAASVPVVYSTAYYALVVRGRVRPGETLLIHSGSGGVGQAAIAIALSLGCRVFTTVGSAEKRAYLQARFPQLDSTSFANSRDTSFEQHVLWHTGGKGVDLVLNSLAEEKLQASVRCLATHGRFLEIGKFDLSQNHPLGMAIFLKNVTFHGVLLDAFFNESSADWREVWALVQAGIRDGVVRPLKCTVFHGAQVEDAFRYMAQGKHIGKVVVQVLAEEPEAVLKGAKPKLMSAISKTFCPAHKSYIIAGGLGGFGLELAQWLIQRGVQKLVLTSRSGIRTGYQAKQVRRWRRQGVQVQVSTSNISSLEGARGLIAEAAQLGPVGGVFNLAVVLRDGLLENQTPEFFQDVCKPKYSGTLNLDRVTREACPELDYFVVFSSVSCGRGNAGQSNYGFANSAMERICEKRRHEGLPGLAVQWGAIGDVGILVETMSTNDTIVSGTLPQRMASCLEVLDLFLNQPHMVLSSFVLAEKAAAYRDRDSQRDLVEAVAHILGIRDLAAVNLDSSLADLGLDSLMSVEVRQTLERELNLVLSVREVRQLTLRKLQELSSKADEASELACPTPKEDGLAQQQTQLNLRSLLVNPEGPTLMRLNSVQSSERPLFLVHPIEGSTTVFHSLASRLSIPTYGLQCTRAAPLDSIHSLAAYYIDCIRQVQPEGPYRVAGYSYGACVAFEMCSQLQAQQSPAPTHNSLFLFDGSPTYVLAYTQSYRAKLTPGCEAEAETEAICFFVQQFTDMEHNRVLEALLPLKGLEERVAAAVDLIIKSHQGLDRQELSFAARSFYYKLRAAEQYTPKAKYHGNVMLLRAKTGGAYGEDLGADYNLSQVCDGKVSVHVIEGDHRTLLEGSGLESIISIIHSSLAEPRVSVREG
Sequence of Tyrosine-protein phosphatase non-receptor type 5 (P54829 whole entry): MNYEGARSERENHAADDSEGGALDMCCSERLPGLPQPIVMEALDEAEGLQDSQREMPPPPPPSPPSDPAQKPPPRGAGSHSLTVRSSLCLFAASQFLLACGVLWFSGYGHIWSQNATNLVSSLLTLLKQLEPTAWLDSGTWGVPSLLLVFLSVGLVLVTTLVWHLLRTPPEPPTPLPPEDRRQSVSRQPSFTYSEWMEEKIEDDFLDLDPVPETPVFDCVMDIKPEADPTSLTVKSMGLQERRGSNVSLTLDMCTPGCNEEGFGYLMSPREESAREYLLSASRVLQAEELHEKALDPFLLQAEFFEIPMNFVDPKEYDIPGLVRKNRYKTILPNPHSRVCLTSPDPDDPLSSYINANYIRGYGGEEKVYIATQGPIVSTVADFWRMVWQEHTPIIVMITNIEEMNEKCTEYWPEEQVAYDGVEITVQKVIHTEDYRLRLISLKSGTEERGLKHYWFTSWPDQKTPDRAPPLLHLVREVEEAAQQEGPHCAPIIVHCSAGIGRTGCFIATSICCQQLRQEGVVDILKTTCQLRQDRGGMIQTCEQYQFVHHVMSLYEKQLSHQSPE
Sequence of ATP-dependent molecular chaperone HSP82 (C4YTQ8 whole entry): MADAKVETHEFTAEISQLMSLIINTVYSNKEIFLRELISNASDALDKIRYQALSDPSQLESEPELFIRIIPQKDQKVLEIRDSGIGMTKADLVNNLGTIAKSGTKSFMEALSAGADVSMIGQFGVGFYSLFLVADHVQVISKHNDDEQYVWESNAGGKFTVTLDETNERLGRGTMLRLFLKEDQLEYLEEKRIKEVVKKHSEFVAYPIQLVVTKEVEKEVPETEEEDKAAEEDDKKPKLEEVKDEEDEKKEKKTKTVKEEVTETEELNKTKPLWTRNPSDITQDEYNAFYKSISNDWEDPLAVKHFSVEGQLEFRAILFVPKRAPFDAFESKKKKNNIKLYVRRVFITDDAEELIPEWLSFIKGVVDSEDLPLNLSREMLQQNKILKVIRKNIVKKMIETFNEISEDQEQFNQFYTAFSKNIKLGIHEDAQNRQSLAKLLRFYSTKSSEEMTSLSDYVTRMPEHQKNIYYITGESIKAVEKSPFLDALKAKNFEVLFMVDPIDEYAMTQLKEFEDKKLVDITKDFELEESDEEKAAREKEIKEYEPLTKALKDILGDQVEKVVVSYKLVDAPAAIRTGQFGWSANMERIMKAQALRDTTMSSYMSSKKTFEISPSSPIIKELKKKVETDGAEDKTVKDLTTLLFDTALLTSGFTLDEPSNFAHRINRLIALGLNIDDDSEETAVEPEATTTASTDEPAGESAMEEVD
Sequence of Tyrosine-protein phosphatase non-receptor type 11 (Q06124 whole entry): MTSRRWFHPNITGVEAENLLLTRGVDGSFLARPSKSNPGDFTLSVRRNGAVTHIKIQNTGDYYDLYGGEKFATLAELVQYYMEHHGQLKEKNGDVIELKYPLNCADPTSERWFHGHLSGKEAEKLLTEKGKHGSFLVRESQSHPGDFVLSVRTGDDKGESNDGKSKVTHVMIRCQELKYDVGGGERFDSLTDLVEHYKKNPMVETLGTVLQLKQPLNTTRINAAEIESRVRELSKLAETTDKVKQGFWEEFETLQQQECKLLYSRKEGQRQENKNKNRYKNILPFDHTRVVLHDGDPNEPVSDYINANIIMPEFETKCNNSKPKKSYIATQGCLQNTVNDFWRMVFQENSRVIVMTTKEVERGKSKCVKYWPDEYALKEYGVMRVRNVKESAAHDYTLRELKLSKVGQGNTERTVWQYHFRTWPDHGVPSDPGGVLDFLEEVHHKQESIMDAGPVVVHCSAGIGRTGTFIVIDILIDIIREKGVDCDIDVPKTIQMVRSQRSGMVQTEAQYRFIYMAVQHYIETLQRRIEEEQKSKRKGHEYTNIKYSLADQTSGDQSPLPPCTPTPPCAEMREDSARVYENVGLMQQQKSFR
Sequence of Dual specificity protein phosphatase 3 (P51452 whole entry): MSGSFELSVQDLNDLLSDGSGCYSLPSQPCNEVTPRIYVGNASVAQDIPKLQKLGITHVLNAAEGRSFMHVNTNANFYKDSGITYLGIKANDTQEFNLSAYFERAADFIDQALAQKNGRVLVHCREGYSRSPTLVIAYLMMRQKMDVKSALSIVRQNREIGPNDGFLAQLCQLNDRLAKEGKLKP

Q: Which results are given for `CC1(C)COCN1S(=O)(=O)c1ccc(C(=O)Nc2nnc(-c3ccc(Cl)s3)o2)cc1`?
A: IC50 [1]: 13.8 µM (active); IC50 [2]: 3.33 µM (active); IC50 [3]: 3.39 µM (active); EC50 [4]: > 180 µM (inactive); EC50 [5]: 0.308 µM (active); EC50 [6]: 0.691 µM (active); EC50 [7]: 22.2 µM (active); EC50 [8]: 68.5 µM (active); EC50 (Streptococcus): 0.841 µM (active)

Q: With `CCCCC[C@H](O)/C=C/[C@@H]1[C@@H](C/C=C\CCCC(=O)O)[C@@H](O)C[C@H]1O` [DINOPROST TROMETHAMINE] as the compound, how does the IC50 [1] read?
A: 2.94 µM (active)

Q: And the IC50 [9]?
A: 2.77 µM (active)

Q: For `O=C(C[C@H]1C[C@@H]2c3cc(NS(=O)(=O)c4ccc(F)cc4)ccc3O[C@@H]2[C@@H](CO)O1)NCc1ccc(Oc2ccccc2)cc1`, which AC50 [10] is on record?
A: 25.6 µM (active)

Q: What about the AC50 [11] of the same compound?
A: 19.3 µM (active)

Q: What about the AC50 [12] of the same compound?
A: 20.9 µM (active)

Q: What about the AC50 (Paired box protein Pax-8) of the same compound?
A: 8.32 µM (active)

Q: And the AC50 [13]?
A: 26 µM (active)

Q: And the AC50 [14]?
A: 40.6 µM (active)

Q: What about the AC50 [15] of the same compound?
A: 22.3 µM (active)

Q: With `Cc1ccc(S(=O)(=O)N2CCC(C(=O)NCc3ccccc3Cl)CC2)cc1` as the compound, how does the IC50 (Phospholipase A2) read?
A: 9.46 µM (active)

Q: What about the IC50 (Cysteine protease ATG4B) of the same compound?
A: 17.5 µM (active)

Q: Which IC50 [1] does the source give for `CC(=O)OC1CC2(C)/C(=N\O)CCC2C2CCc3cc(O)ccc3C12` (configuration not stated) here?
A: 0.953 µM (active)

Q: What about the IC50 [9] of the same compound?
A: 0.605 µM (active)

Q: With `Cc1ccc2c(c1)[C@@H]1CN(C)CC[C@@H]1N2C(=O)Nc1cccc(C(F)(F)F)c1` as the compound, how does the IC50 [1] read?
A: 8.23 µM (active)

Q: And the IC50 [9]?
A: 6.31 µM (active)

Q: With `Cc1ccc(NC(=O)c2ccc3nc(N4CCOCC4)sc3c2)c(Cl)c1` as the compound, how does the IC50 [16] read?
A: 0.804 µM (active)

Q: What about the IC50 [17] of the same compound?
A: 1.97 µM (active)

Q: And the IC50 [18]?
A: 17.2 µM (active)

Q: With `COc1ccc(C#Cc2ccc3c(c2)O[C@H](CN(C)C(=O)CN2CCOCC2)[C@H](C)CN([C@H](C)CO)S3(=O)=O)cc1` as the compound, how does the AC50 [19] read?
A: 12.3 µM (active)

Q: What does the source list for `COc1cc(C(=O)N/N=C/c2coc3ccc(Cl)cc3c2=O)ccc1O`?
A: IC50 (Phospholipase A2): 16.2 µM (active); IC50 (Fatty acid synthase [20]): 18.5 µM (active); IC50 (Cysteine protease ATG4B): 3.35 µM (active); IC50 (Fatty acid synthase [21]): 7.45 µM (active)
